Laboratory results as given in US6346273B1, “Process for solubilizing pharmaceutically active ingredients in water and in aqueous vehicles” (Farmigea S.p.A., priority 1997, dated 2002).
Values belong to the molecule of their own block, whether it stands above or below them.

Experiments:
[1] = Amounts of drugs solubilized at 20° C. in water, with PVP, with PEG-GTR and with the method of the invention; format: physicochemical
Excerpt: In this table, the solubility of each drug in water is compared with the solubility obtainable with the complexation method (with PVP) and with the solubility obtainable with the micellar solubilization method with surfactants (with PEG-GTR). In all cases it is evident that the combined method according to the invention affords solubility increases that are largely greater than the sum of the increases obtainable with each one of the prior art methods.

[2] = co-precipitated with PVP having M.W.=50,000; cited from earlier work
[3] = PVP (M.W. = 10,000) 18.0 % w/w in water

Amt. of drug solubilized at 20° C. (% w/w) ([1]; PEG-GTR 5.0 % w/w in water): 0.0252 % w/w | Amt. of drug solubilized at 20° C. (% w/w) [1, 3]: 0.0022 % w/w | Amt. of drug solubilized at 20° C. (% w/w) ([1]; PVP (M.W. = 10,000) + PEG-GTR (18.0 + 5.0 % w/w), method of the invention): 0.10 % w/w | Amt. of drug solubilized at 20° C. (% w/w) ([1]; water, solubilizing agent none): 0.008 % w/w
Structure (SMILES): CC(=O)OCC(=O)[C@@]12OC(C)(C)O[C@@H]1C[C@H]1[C@@H]3CC(C=O)=C4C=C(OCCCl)CC[C@]4(C)[C@@]3(F)[C@@H](O)C[C@@]12C [Formocortal]

Amt. of drug solubilized at 20° C. (% w/w) ([1]; PEG-GTR 2.5 % w/w in water): 0.13 % w/w | Amt. of drug solubilized at 20° C. (% w/w) ([1]; PVP (M.W. = 10,000) 20.0 % w/w in water): 0.081 % w/w | Amt. of drug solubilized at 20° C. (% w/w) ([1]; PVP (M.W. = 10,000) + PEG-GTR (20.0 + 2.5 % w/w), method of the invention): 0.50 % w/w | Amt. of drug solubilized at 20° C. (% w/w) ([1]; water, solubilizing agent none): 0.0017 % w/w
Structure (SMILES): CN1C(C(=O)Nc2ccccn2)=C(O)c2ccccc2S1(=O)=O [Piroxicam]

Amt. of drug solubilized at 20° C. (% w/w) ([1]; PEG-GTR 6.0 % w/w in water): 0.60 % w/w | Amt. of drug solubilized at 20° C. (% w/w) ([1]; PEG-GTR 8.0 % w/w in water): 0.80 % w/w | Amt. of drug solubilized at 20° C. (% w/w) ([1]; PEG-GTR 10.0 % w/w in water): 1.20 % w/w | Amt. of drug solubilized at 20° C. (% w/w) ([1]; PVP (M.W. 10,000) + PEG-GTR (18.0 + 8.0 % w/w), method of the invention): 2.0 % w/w | Amt. of drug solubilized at 20° C. (% w/w) [1, 3]: 0.05 % w/w | Amt. of drug solubilized at 20° C. (% w/w) ([1]; PVP (M.W. = 10,000) + PEG-GTR (18.0 + 6.0 % w/w), method of the invention): 1.50 % w/w | Amt. of drug solubilized at 20° C. (% w/w) ([1]; PVP (M.W. = 10,000) + PEG-GTR (18.0 + 10.0 % w/w), method of the invention): 3.0 % w/w | solubility in water ([1]; at 20° C.): 0.75 mg/100 g of water | solubility when treated with complexation with PVP ([1]; complexation with PVP): 0.05 % (w/w) | solubility by means of surface-active agents ([1]; optimized choice of surfactant and amounts): ~1.2 % (w/w) | original solubility ([1]; water, no solubilization technique): 0.00075 % (w/w) | Amt. of drug solubilized at 20° C. (% w/w) ([1]; water, solubilizing agent none): 0.00075 % w/w
Structure (SMILES): COc1ccc2c(C(=S)N(C)CC(=O)O)cccc2c1C(F)(F)F [Tolrestat]

Amt. of drug solubilized at 20° C. (% w/w) ([1]; PEG-GTR 1.0 % w/w in water): 0.03 % w/w | Amt. of drug solubilized at 20° C. (% w/w) ([1]; PVP (M.W. = 44,000-54,000) 15.0 % w/w in water): 0.24 % w/w | Amt. of drug solubilized at 20° C. (% w/w) ([1]; PVP (M.W. = 44,000-54,000) + PEG-GTR (15.0 + 1.0 % w/w), method of the invention): 0.30 % w/w | Amt. of drug solubilized at 20° C. (% w/w) ([1]; water, solubilizing agent none): 0.029 % w/w
Structure (SMILES): CN1CCN(c2c(F)cc3c(=O)c(C(=O)O)cn4c3c2SCC4)CC1 [Rufloxacin]

Second part, the molecule before the results:

Structure (SMILES): C=C[C@@]1(C)CC(=O)[C@]2(O)[C@@]3(C)[C@@H](O)CCC(C)(C)[C@@H]3[C@H](O)[C@H](OC(C)=O)[C@@]2(C)O1 [Forskolin]
Amt. of drug solubilized at 20° C. (% w/w) ([1]; PEG-GTR 10.0 % w/w in water): 0.05 % w/w | Amt. of drug solubilized at 20° C. (% w/w) ([1]; PVP (M.W. = 10,000) 30.0 % w/w in water): 0.03 % w/w | Amt. of drug solubilized at 20° C. (% w/w) ([1]; PVP (M.W. = 10,000) + PEG-GTR (30.0 + 10.0 % w/w), method of the invention): 0.20 % w/w | Amt. of drug solubilized at 20° C. (% w/w) ([1]; water, solubilizing agent none): 0.0029 % w/w

Structure (SMILES): O=C1NC(=O)C(c2ccccc2)(c2ccccc2)N1 [phenytoin]
solutions stability [2]: maximum of two years

Structure (SMILES): C[C@@H]1O[C@@H](OC[C@H]2O[C@@H](Oc3c(-c4ccc(O)c(O)c4)oc4cc(O)cc(O)c4c3=O)[C@H](O)[C@@H](O)[C@@H]2O)[C@H](O)[C@H](O)[C@H]1O [Rutin]
Amt. of drug solubilized at 20° C. (% w/w) ([1]; PEG-GTR 10.0 % w/w in water): 0.074 % w/w | Amt. of drug solubilized at 20° C. (% w/w) ([1]; PVP (M.W. = 2000-3000) 30.0 % w/w in water): 0.37 % w/w | Amt. of drug solubilized at 20° C. (% w/w) ([1]; PVP (M.W. = 2000-3000) + PEG-GTR (30.0 + 10.0 % w/w), method of the invention): 1.0 % w/w | Amt. of drug solubilized at 20° C. (% w/w) ([1]; water, solubilizing agent none): 0.0125 % w/w
